Experimental data taken from article PMC9574860, “Chemical Toolkit for PARK7: Potent, Selective, and High-Throughput” (Journal of Medicinal Chemistry, 2022).

Experiments:
PARK7 [1] = target: T1, PARK7 (Homo sapiens, UniProt Q99497); experiment: Gel-based competition assay with probe 8RK59, PARK7 band; type: biochemical; set-up: GST (N, cleaved yes); made in house; host or cells: E. coli BL21(DE3) Rosetta2; details: compound 2 μM, 1 h; PARK7 and UCHL1 1 μM each; then 8RK59 2 μM 30 min; Figure 3B
T1 sequence (Q99497 1-189): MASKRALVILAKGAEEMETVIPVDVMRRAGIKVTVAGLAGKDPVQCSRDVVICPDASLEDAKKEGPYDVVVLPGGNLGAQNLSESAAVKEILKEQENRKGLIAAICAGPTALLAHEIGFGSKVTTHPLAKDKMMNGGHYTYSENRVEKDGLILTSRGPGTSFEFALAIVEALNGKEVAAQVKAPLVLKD
Experimental: (§1) To assess the inhibitory potency and selectivity of these compounds toward PARK7 and UCHL1, we performed a gel-based competition assay (Figure 3A).[36] A mixture of equal amounts of PARK7 and UCHL1 (1 μM) was treated with each of the synthesized compounds (2 μM) for 1 h, followed by incubation with fluorescent probe 8RK59 (2 μM) for 30 min. Samples were resolved by SDS-PAGE, and the gel was scanned for fluorescence. Inhibition of PARK7 or UCHL1 is reflected by the disappearance of their corresponding bands (Figure 3B). […] The inhibition potential of JYQ-88 against PARK7 was assessed in a similar assay where PARK7 was incubated with a serial dilution of JYQ-88 before treatment with probe 8RK59 (Figure 3C). A clear inhibition is visible at 0.5 μM, and full inhibition is achieved between 1 and 2 μM. […] The selectivity of JYQ-88 between UCHL1 and PARK7 was further confirmed in a direct competition assay between equal amounts of PARK7 and UCHL1 (Figure 3F). PARK7 inhibition was observed starting from 0.5 μM JYQ-88, whereas inhibition of UCHL1 was only detected at 20 μM. Since JYQ-88 and 8RK64 are enantiomers, we assumed that the interactions with PARK7 should be similar. To investigate how the chiral center influences the selectivity, we solved the crystal structure of the PARK7−JYQ-88 complex with 1.42 Å resolution (Figure 3G, Table S1, PDB 7PA3). The global positioning of the inhibitor in between the two α-helices was similar to that for 8RK64. […] This way, the thiazolo-pyridine part of JYQ-88 is bound in a similar manner as 8RK64 and the earlier observed interactions are largely the same. The formation of the isothiourea moiety, stabilized by the interaction with Glu18, and the interaction between the thiazole amine and the amide NH2 of the Asn76 side chain are still present. However, the interaction between the azidoacetyl carbonyl with the Leu128 backbone carbonyl can no longer be observed due to the rotation of the azidoacetyl moiety. The Lys132 residue also seems to have rotated (compared to Figure 2C).
(§2) The assay was performed in Tris buffer as described above.

UCHL1 = target: T2, UCHL1 (Homo sapiens, UniProt P09936); experiment: Gel-based competition assay with probe 8RK59, UCHL1 band; type: biochemical; details: compound 2 μM, 1 h; PARK7 and UCHL1 1 μM each; then 8RK59 2 μM 30 min; Figure 3B
T2 sequence (P09936 1-223): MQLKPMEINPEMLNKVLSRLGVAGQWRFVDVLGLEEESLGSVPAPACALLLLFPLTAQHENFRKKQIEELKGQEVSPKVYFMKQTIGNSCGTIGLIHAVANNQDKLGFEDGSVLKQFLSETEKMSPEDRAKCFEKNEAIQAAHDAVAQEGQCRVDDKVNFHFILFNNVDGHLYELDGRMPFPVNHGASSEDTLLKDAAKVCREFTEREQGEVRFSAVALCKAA
Experimental: as §1, §2

PARK7 [2] = target: T1, PARK7; experiment: DiFMUAc PARK7 activity assay; type: biochemical; set-up: GST (N, cleaved yes); made in house; host or cells: E. coli BL21(DE3) Rosetta2; details: for inhibition at 12.5 µM: read-out: DiFMuAc assay %Inhibiton (12.5 µM); for inhibition at 37.5 µM: read-out: DiFMuAc assay %Inhibiton (37.5 µM); for inhibition at 100 µM: read-out: DiFMuAc assay %Inhibiton (100 µM)
Experimental: Compounds were transferred using a Labcyte Echo550 acoustic dispenser to obtain a 12-point serial dilution of 0.001 to 100 μM. Next, PARK7 (15 μL, final concentration of 0.1 μM) was dispensed with a Biotek MultiFlowFX liquid dispenser and incubated for 1 h, followed by dispensing the substrate DiFMUAc (5 μL, final concentration of 300 μM). The fluorescence intensity (FI) signal was monitored with a BMG Labtech PHERAstar plate reader (λex/em 350/450 nm) for 1 h.
The validation was performed in the PBS buffer with a reaction volume of 20 μL per well in triplicate. […] Next, PARK7 (15 μL, final concentration 0.1 μM) was dispensed with a Biotek MultiFlowFX liquid dispenser and incubated for 2 h, followed by dispensing the substrate DiFMUAc (5 μL, final concentration 300 μM). The FI signal was monitored with a BMG Labtech PHERAstar plate reader (λex/em 350/450 nm) for 1 h. The increase of FI signal compared with reference controls was used to calculate the remaining enzyme activity. The inhibition percentage of these 22 compounds was plotted as a heatmap using GraphPad Prism 9.0.1 software. Color gradients indicate inhibition percentage, no inhibiton (white) and full inhibition (blue).

PARK7 [3] = target: T1, PARK7; experiment: FP assay with Rhodamine110 probe JYQ-107 (IC50 and hit validation); type: binding; set-up: GST (N, cleaved yes); made in house; host or cells: E. coli BL21(DE3) Rosetta2; details: for inhibition at 12.5 µM: read-out: FP assay %Inhibiton (12.5 µM); for inhibition at 37.5 µM: read-out: FP assay %Inhibiton (37.5 µM); for inhibition at 100 µM: read-out: FP assay %Inhibiton (100 µM)
Experimental: The assay was performed using the conditions as described above with a reaction volume of 20 μL per well in triplicate. Stock solutions of JYQ-88 of 1 and 0.1 mM were prepared. […] The FP signal was monitored with a BMG Labtech PHERAstar plate reader (λex/em 480/520 nm) for 2 h.
The validation was performed using the conditions as described above with a reaction volume of 20 μL per well in triplicate. […] The FP signal was monitored with a BMG Labtech PHERAstar plate reader (λex/em 480/520 nm) for 2 h. The relative loss of FP signal compared with reference controls was used to calculate the remaining enzyme activity. Inhibition percentage of these 40 compounds was plotted as a heatmap using GraphPad Prism 9.0.1 software. Color gradients indicate inhibition percentage, no inhibiton (white) and full inhibition (blue).

[4] = 12.5 µM compound, PARK7 0.1 μM, 2 h preincubation, DiFMUAc 300 μM
[5] = 37.5 µM compound, PARK7 0.1 μM, 2 h preincubation, DiFMUAc 300 μM
[6] = 100 µM compound, PARK7 0.1 μM, 2 h preincubation, DiFMUAc 300 μM
[7] = 12.5 µM compound, PARK7 0.2 μM, 1 h preincubation, JYQ-107 20 nM
[8] = 37.5 µM compound, PARK7 0.2 μM, 1 h preincubation, JYQ-107 20 nM
[9] = 100 µM compound, PARK7 0.2 μM, 1 h preincubation, JYQ-107 20 nM

## N#CN1CC[C@H](C(=O)Nc2nc3c(s2)CN(C(=O)CCCCBr)CC3)C1 [JYQ-78, (S)-N-(5-(5-Bromopentanoyl)-4,5,6,7-tetrahydrothiazolo[5,4-c]pyridin-2-yl)-1-cyanopyrrolidine-3-carboxamide]
PARK7 [1]
  Inhibition of PARK7 (disappearance of 8RK59-labeled band): less efficiently
UCHL1
  Inhibition of UCHL1 (disappearance of 8RK59-labeled band): fully inhibit

## Cc1ccc(C(=O)O)cc1S(=O)(=O)F [Z3242849759]
PARK7 [2]; [4]
  DiFMuAc assay %Inhibiton (12.5 µM): 93.6%
PARK7 [2]; [5]
  DiFMuAc assay %Inhibiton (37.5 µM): 95.8%
PARK7 [2]; [6]
  DiFMuAc assay %Inhibiton (100 µM): 93.1%
PARK7 [3]; [7]
  FP assay %Inhibiton (12.5 µM): 100.0%
PARK7 [3]; [8]
  FP assay %Inhibiton (37.5 µM): 100.0%
PARK7 [3]; [9]
  FP assay %Inhibiton (100 µM): 100.0%

## O=[N+]([O-])c1cccc(S(=O)(=O)F)c1 [Z3243697698]
PARK7 [2]; [4]
  DiFMuAc assay %Inhibiton (12.5 µM): 100.0%
PARK7 [2]; [5]
  DiFMuAc assay %Inhibiton (37.5 µM): 100.0%
PARK7 [2]; [6]
  DiFMuAc assay %Inhibiton (100 µM): 100.0%
PARK7 [3]; [7]
  FP assay %Inhibiton (12.5 µM): 100.0%
PARK7 [3]; [8]
  FP assay %Inhibiton (37.5 µM): 100.0%
PARK7 [3]; [9]
  FP assay %Inhibiton (100 µM): 100.0%

## CC1CCC(N(C)C(=O)CCl)CC1 (centres unmarked) [Z85923410]
PARK7 [2]; [4]
  inhibition at 12.5 µM: 81.8%
PARK7 [2]; [5]
  inhibition at 37.5 µM: 94.6%
PARK7 [2]; [6]
  inhibition at 100 µM: 97.4%
PARK7 [3]; [7]
  inhibition at 12.5 µM: 85.7%
PARK7 [3]; [8]
  inhibition at 37.5 µM: 100%
PARK7 [3]; [9]
  inhibition at 100 µM: 100%

## O=C(CSC(F)(F)F)Nc1cccc(S(=O)(=O)F)c1 [Z1713569375]
PARK7 [2]; [4]
  DiFMuAc assay %Inhibiton (12.5 µM): 81.4%
PARK7 [2]; [5]
  DiFMuAc assay %Inhibiton (37.5 µM): 49.1%
PARK7 [2]; [6]
  DiFMuAc assay %Inhibiton (100 µM): 97.1%
PARK7 [3]; [7]
  FP assay %Inhibiton (12.5 µM): 98.9%
PARK7 [3]; [8]
  FP assay %Inhibiton (37.5 µM): 100.0%
PARK7 [3]; [9]
  FP assay %Inhibiton (100 µM): 100.0%

## O=[N+]([O-])c1ccccc1S(=O)(=O)F [Z3223579620]
PARK7 [2]; [4]
  DiFMuAc assay %Inhibiton (12.5 µM): 99.2%
PARK7 [2]; [5]
  DiFMuAc assay %Inhibiton (37.5 µM): 98.3%
PARK7 [2]; [6]
  DiFMuAc assay %Inhibiton (100 µM): 98.2%
PARK7 [3]; [7]
  FP assay %Inhibiton (12.5 µM): 100.0%
PARK7 [3]; [8]
  FP assay %Inhibiton (37.5 µM): 100.0%
PARK7 [3]; [9]
  FP assay %Inhibiton (100 µM): 100.0%

## CC1=NOC(=O)C1CC(=O)O (centres unmarked) [Z367451146]
PARK7 [2]; [4]
  inhibition at 12.5 µM: 92.2%
PARK7 [2]; [5]
  inhibition at 37.5 µM: 100%
PARK7 [2]; [6]
  inhibition at 100 µM: 100%
PARK7 [3]; [7]
  inhibition at 12.5 µM: 100%
PARK7 [3]; [8]
  inhibition at 37.5 µM: 100%
PARK7 [3]; [9]
  inhibition at 100 µM: 100%

## CC(C)CC(=O)NNS(=O)(=O)c1cccc(S(=O)(=O)F)c1 [Z1764309349]
PARK7 [2]
  inhibition at 12.5 µM: 94%
  inhibition at 37.5 µM: 94.6%
  inhibition at 100 µM: 94.4%
PARK7 [3]
  inhibition at 12.5 µM: 100%
  inhibition at 37.5 µM: 100%
  inhibition at 100 µM: 100%

## Cc1conc1NS(=O)(=O)c1cccc(S(=O)(=O)F)c1 [Z2509450956]
PARK7 [2]; [4]
  DiFMuAc assay %Inhibiton (12.5 µM): 98.5%
PARK7 [2]; [5]
  DiFMuAc assay %Inhibiton (37.5 µM): 98.2%
PARK7 [2]; [6]
  DiFMuAc assay %Inhibiton (100 µM): 97.5%
PARK7 [3]; [7]
  FP assay %Inhibiton (12.5 µM): 100.0%
PARK7 [3]; [8]
  FP assay %Inhibiton (37.5 µM): 100.0%
PARK7 [3]; [9]
  FP assay %Inhibiton (100 µM): 100.0%

## O=S(=O)(F)c1cccc(S(=O)(=O)Nc2cccnc2O)c1 [Z1764375816]
PARK7 [2]
  inhibition at 12.5 µM: 97.1%
  inhibition at 37.5 µM: 99.2%
  inhibition at 100 µM: 100%
PARK7 [3]
  inhibition at 12.5 µM: 100%
  inhibition at 37.5 µM: 100%
  inhibition at 100 µM: 100%

## O=C(CCl)c1ccc(F)c(C(=O)CCl)c1 [Z2768504793]
PARK7 [2]; [4]
  inhibition at 12.5 µM: 98%
PARK7 [2]; [5]
  inhibition at 37.5 µM: 98.5%
PARK7 [2]; [6]
  inhibition at 100 µM: 95.9%
PARK7 [3]; [7]
  inhibition at 12.5 µM: 100%
PARK7 [3]; [8]
  inhibition at 37.5 µM: 100%
PARK7 [3]; [9]
  inhibition at 100 µM: 100%

## CCN(c1ccc(NC(=O)CCl)cc1)C(C)C [Z56896170]
PARK7 [2]; [4]
  inhibition at 12.5 µM: 81.4%
PARK7 [2]; [5]
  inhibition at 37.5 µM: 94.9%
PARK7 [2]; [6]
  inhibition at 100 µM: 97.4%
PARK7 [3]; [7]
  inhibition at 12.5 µM: 100%
PARK7 [3]; [8]
  inhibition at 37.5 µM: 100%
PARK7 [3]; [9]
  inhibition at 100 µM: 100%
